≈ marks a conversion by molar mass, not a printed value. Calls of active or inactive are those of the source. The calls are words filed in the database; no cut-off is given here.
Assays:
Type in all cases: functional
[1] = test system: Mycobacterium tuberculosis; test: Antimycobacterial activity against isoniazid/rifampicin/ethambutol-resistant Mycobacterium tuberculosis G122 assessed as inhibition of mycobacterial growth incubated for 2 weeks by MABA method; settings: for MIC: Mycobacterium tuberculosis, G122, 336 h
[2] = test system: Mycobacterium tuberculosis; test: Antimycobacterial activity against isoniazid/rifampicin/streptomycin-resistant Mycobacterium tuberculosis G133 assessed as inhibition of mycobacterial growth incubated for 2 weeks by MABA method; settings: for MIC: Mycobacterium tuberculosis, G133, 336 h
[3] = test system: Mycobacterium tuberculosis; test: Antimycobacterial activity against isoniazid/rifampicin/ethambutol-resistant Mycobacterium tuberculosis G122 assessed as inhibition of mycobacterial growth up to 50 ug/ml incubated for 2 weeks by MABA method
[4] = test system: Mycobacterium tuberculosis; test: Antimycobacterial activity against isoniazid/rifampicin/streptomycin-resistant Mycobacterium tuberculosis G133 assessed as inhibition of mycobacterial growth up to 50 ug/ml incubated for 2 weeks by MABA method
[5] = test system: Mycobacterium tuberculosis; test: Antibacterial activity against multidrug-resistant Mycobacterium tuberculosis

Compound `COc1cc(C[C@@H](C)[C@@H](C)Cc2ccc(OCCN3CCCCC3)c(OC)c2)ccc1O` (racemic) has an MIC [1] of 25 µg/mL (≈ 56.6 µM) and an MIC [2] of 25 µg/mL (≈ 56.6 µM).
`COc1ccc(C[C@@H](C)[C@@H](C)Cc2ccc(OC)c(OC)c2)cc1OC` [TERAMEPROCOL] was tested, and the “-logMIC” value [1] was 4.95, the “growth inhibition (GI)” value [3] was “inactive” and the “growth inhibition (GI)” value [4] was “inactive”. For the same compound, the “-logMIC” value [2] was 4.35.
For `COc1cc(C[C@@H](C)[C@@H](C)Cc2ccc(OCCN3CCCC3)c(OC)c2)ccc1O` (racemic), the “-logMIC” value [1] was 4.95, the MIC [1] was 25 µg/mL (≈ 58.5 µM) and the “-logMIC” value [2] was 4.95. It also gave an MIC [2] of 25 µg/mL (≈ 58.5 µM).
In the case of `CCCCCCCCCCCCCCCCCC(=O)Oc1ccc(C[C@@H](C)[C@@H](C)Cc2ccc(OC(=O)CCCCCCCCCCCCCCCCC)c(OC)c2)cc1OC`, the “-logMIC” value [1] is reported as 3.85, the “growth inhibition (GI)” value [3] is reported as “inactive” and the “growth inhibition (GI)” value [4] is reported as “inactive”. For the same compound, the “-logMIC” value [2] was 3.85.
`COc1cc(C[C@@H](C)[C@@H](C)Cc2ccc(OC(=O)c3ccccc3)c(OC)c2)ccc1O` (racemic) was tested, and the “-logMIC” value [1] was 4.01, the MIC [1] was over 50 µg/mL and the “-logMIC” value [2] was 4. The MIC [2] was over 50 µg/mL.
For `CCCCCCCC/C=C\CCCCCCCC(=O)Oc1ccc(C[C@@H](C)[C@@H](C)Cc2ccc(OC(=O)CCCCCCC/C=C\CCCCCCCC)c(OC)c2)cc1OC`, the “-logMIC” value [1] was 4.58, the “growth inhibition (GI)” value [3] was “inactive” and the “growth inhibition (GI)” value [4] was “inactive”. For the same compound, the “-logMIC” value [2] was 4.58.
For `CCCCCCCCCCCCCCCC(=O)Oc1ccc(C[C@H](C)[C@H](C)Cc2ccc(O)c(OC)c2)cc1OC` (racemic), the “-logMIC” value [1] was 3.93, the “growth inhibition (GI)” value [3] was “inactive” and the “growth inhibition (GI)” value [4] was “inactive”. For the same compound, the “-logMIC” value [2] was 3.93.
For `COc1cc(C[C@@H](C)[C@@H](C)Cc2ccc(OCCN(C)C)c(OC)c2)ccc1OCCN(C)C`, the “-logMIC” value [1] was 4.62, the MIC [1] was 12.5 µg/mL (≈ 26.4 µM) and the “-logMIC” value [2] was 4.62. The MIC [2] was 12.5 µg/mL (≈ 26.4 µM).
`C[C@H]1COc2c(N3CCN(C)CC3)c(F)cc3c(=O)c(C(=O)O)cn1c23.C[C@H]1COc2c(N3CCN(C)CC3)c(F)cc3c(=O)c(C(=O)O)cn1c23.O` [LEVOFLOXACIN] gave an MIC [1] of 6.25 µg/mL and an MIC [2] of 1.56 µg/mL.
`CCN(CC)CCOc1ccc(C[C@@H](C)[C@@H](C)Cc2ccc(OCCN(CC)CC)c(OC)c2)cc1OC` was tested, and the “-logMIC” value [1] was 4.25, the MIC [1] was 25 µg/mL (≈ 47.3 µM) and the “-logMIC” value [2] was 4.25. The MIC [2] was 25 µg/mL (≈ 47.3 µM).
`COc1cc(C[C@@H](C)[C@@H](C)Cc2ccc(OC(=O)c3cnccn3)c(OC)c2)ccc1O` (racemic) was tested, and the “-logMIC” value [1] was 4.07, the MIC [1] was over 50 µg/mL and the “-logMIC” value [2] was 4.07. For the same compound, the MIC [2] was over 50 µg/mL.
With `COc1cc(C[C@@H](C)[C@@H](C)Cc2ccc(OC(=O)c3ccccc3)c(OC)c2)ccc1OC(=O)c1ccccc1` the “-logMIC” value [1] was 4.14, the “growth inhibition (GI)” value [3] was “inactive” and the “growth inhibition (GI)” value [4] was “inactive”. The “-logMIC” value [2] was 4.14.
For `COc1cc(C[C@@H](C)[C@@H](C)Cc2ccc(OC(=O)c3cccnc3)c(OC)c2)ccc1O` (racemic), the “-logMIC” value [1] was 4.05, the MIC [1] was 50 µg/mL (≈ 115 µM) and the “-logMIC” value [2] was 4.05. It also gave an MIC [2] of 50 µg/mL (≈ 115 µM).
With `COc1cc(C[C@@H](C)[C@@H](C)Cc2ccc(OC(=O)c3ccccn3)c(OC)c2)ccc1O` (racemic) the “-logMIC” value [1] was 3.86, the MIC [1] was 25 µg/mL (≈ 57.4 µM) and the “-logMIC” value [2] was 3.86. It also gave an MIC [2] of over 50 µg/mL.
With `COc1cc(C[C@@H](C)[C@@H](C)Cc2ccc(OC(=O)c3ccc(Br)cc3)c(OC)c2)ccc1OC(=O)c1ccc(Br)cc1` the “-logMIC” value [1] was 4.09, the “growth inhibition (GI)” value [3] was “inactive” and the “growth inhibition (GI)” value [4] was “inactive”. The “-logMIC” value [2] was 4.09.
Work on `COc1cc(C[C@@H](C)[C@@H](C)Cc2ccc(OCCN3CCOCC3)c(OC)c2)ccc1OCCN1CCOCC1` yielded an MIC [1] of 6.25 µg/mL (≈ 11.2 µM) and an MIC [2] of 25 µg/mL (≈ 44.9 µM).
In the case of `COc1cc(C[C@@H](C)[C@@H](C)Cc2ccc(OC(C)=O)c(OC)c2)ccc1O` (racemic), the “-logMIC” value [1] is reported as 4.07, the MIC [1] is reported as over 50 µg/mL and the “-logMIC” value [2] is reported as 4.07. For the same compound, the MIC [2] was over 50 µg/mL.
For `COc1cc(C[C@@H](C)[C@@H](C)Cc2ccc(OCCN(C)C)c(OC)c2)ccc1O` (racemic), the “-logMIC” value [1] was 4.23, the MIC [1] was over 50 µg/mL and the “-logMIC” value [2] was 4.23. It also gave an MIC [2] of over 50 µg/mL.
In the case of `COc1cc(C[C@@H](C)[C@@H](C)Cc2ccc(OC(=O)c3cccnc3)c(OC)c2)ccc1OC(=O)c1cccnc1`, the “-logMIC” value [1] is reported as 4.2, the MIC [1] is reported as over 50 µg/mL and the “-logMIC” value [2] is reported as 4.2. For the same compound, the MIC [2] was over 50 µg/mL.
With `COc1cc(C[C@@H](C)[C@@H](C)Cc2ccc(OCCN3CCOCC3)c(OC)c2)ccc1O` (racemic) the “growth inhibition (GI)” value [3] was “inactive” and the “growth inhibition (GI)” value [4] was “inactive”.
For `COc1cc(C[C@@H](C)[C@@H](C)Cc2ccc(OC)c(OC)c2)ccc1O` (racemic), the “-logMIC” value [1] was 3.94, the MIC [1] was 50 µg/mL (≈ 145 µM) and the “-logMIC” value [2] was 3.94. For the same compound, the MIC [2] was 50 µg/mL (≈ 145 µM).
Compound `CC[C@@H](CO)NCCN[C@@H](CC)CO` [ETHAMBUTOL] has an MIC [1] of 6.25 µg/mL (≈ 30.6 µM) and an MIC [2] of 3.12 µg/mL (≈ 15.3 µM).
For `CCCCCCCCCCCCCCCC(=O)Oc1ccc(C[C@@H](C)[C@@H](C)Cc2ccc(OC(=O)CCCCCCCCCCCCCCC)c(OC)c2)cc1OC`, the “-logMIC” value [1] was 4.02, the “growth inhibition (GI)” value [3] was “inactive” and the “growth inhibition (GI)” value [4] was “inactive”. The “-logMIC” value [2] was 4.02.
`COc1cc(C[C@@H](C)[C@@H](C)Cc2ccc(OC(=O)c3ccccn3)c(OC)c2)ccc1OC(=O)c1ccccn1` was tested, and the “-logMIC” value [1] was 3.91, the “growth inhibition (GI)” value [3] was “inactive” and the “growth inhibition (GI)” value [4] was “inactive”. The “-logMIC” value [2] was 3.91.
With `CCCC(=O)Oc1ccc(C[C@@H](C)[C@@H](C)Cc2ccc(OC(=O)CCC)c(OC)c2)cc1OC` the “-logMIC” value [1] was 4.03, the “growth inhibition (GI)” value [3] was “inactive” and the “growth inhibition (GI)” value [4] was “inactive”. The “-logMIC” value [2] was 4.03.
With `COc1cc(C[C@@H](C)[C@@H](C)Cc2ccc(OC(=O)c3ccc(Br)cc3)c(OC)c2)ccc1O` (racemic) the “-logMIC” value [1] was 3.98, the MIC [1] was over 50 µg/mL and the “-logMIC” value [2] was 3.97. The MIC [2] was over 50 µg/mL.
For `COc1cc(C[C@@H](C)[C@@H](C)Cc2ccc(OCCN3CCCCC3)c(OC)c2)ccc1OCCN1CCCCC1`, the MIC [1] was 6.25 µg/mL (≈ 11.3 µM) and the MIC [2] was 6.25 µg/mL (≈ 11.3 µM).
In the case of `CCCC(=O)Oc1ccc(C[C@H](C)[C@H](C)Cc2ccc(O)c(OC)c2)cc1OC` (racemic), the “-logMIC” value [1] is reported as 3.93, the “growth inhibition (GI)” value [3] is reported as “inactive” and the “growth inhibition (GI)” value [4] is reported as “inactive”. For the same compound, the “-logMIC” value [2] was 3.93.
`CCCCCCCC/C=C\CCCCCCCC(=O)Oc1ccc(C[C@H](C)[C@H](C)Cc2ccc(O)c(OC)c2)cc1OC` (racemic) was tested, and the “-logMIC” value [1] was 3.9, the “growth inhibition (GI)” value [3] was “inactive” and the “growth inhibition (GI)” value [4] was “inactive”. The “-logMIC” value [2] was 3.9.
For `COc1cc(C[C@@H](C)[C@@H](C)Cc2ccc(OCCN3CCCC3)c(OC)c2)ccc1OCCN1CCCC1`, the MIC [1] was 12.5 µg/mL (≈ 23.8 µM) and the MIC [2] was 12.5 µg/mL (≈ 23.8 µM).
For `COc1cc(C[C@@H](C)[C@@H](C)Cc2ccc(OC(C)=O)c(OC)c2)ccc1OC(C)=O`, the “-logMIC” value [1] was 4.23, the MIC [1] was over 50 µg/mL and the “-logMIC” value [2] was 4.23. For the same compound, the MIC [2] was over 50 µg/mL.
In the case of `COc1cc(C[C@@H](C)[C@@H](C)Cc2ccc(OC(=O)c3cnccn3)c(OC)c2)ccc1OC(=O)c1cnccn1`, the “-logMIC” value [1] is reported as 4.23, the MIC [1] is reported as over 50 µg/mL and the “-logMIC” value [2] is reported as 4.23. The MIC [2] was over 50 µg/mL.
`COc1cc(C[C@@H](C)[C@@H](C)Cc2ccc(OC(=O)c3ccccc3[N+](=O)[O-])c(OC)c2)ccc1O` (racemic) was tested, and the “-logMIC” value [1] was 4.24, the MIC [1] was 50 µg/mL (≈ 104 µM) and the “-logMIC” value [2] was 3.93. It also gave an MIC [2] of over 50 µg/mL.
In the case of `COc1cc(C[C@@H](C)[C@@H](C)Cc2ccc(O)c(OC)c2)ccc1O` [MESODIHYDROGUAIARETIC ACID], the MIC [1] is reported as over 50 µg/mL, the MIC [5] is reported as 12.5 to 50 µg/mL (≈ 37.8 to 151 µM) and the MIC [2] is reported as over 50 µg/mL.
With `CCCCCCCCCCCCCCCCCC(=O)Oc1ccc(C[C@H](C)[C@H](C)Cc2ccc(O)c(OC)c2)cc1OC` (racemic) the “-logMIC” value [1] was 3.84, the “growth inhibition (GI)” value [3] was “inactive” and the “growth inhibition (GI)” value [4] was “inactive”. For the same compound, the “-logMIC” value [2] was 3.84.
With `COc1cc(C[C@@H](C)[C@@H](C)Cc2ccc(OC(=O)c3ccccc3[N+](=O)[O-])c(OC)c2)ccc1OC(=O)c1ccccc1[N+](=O)[O-]` the “-logMIC” value [1] was 4.03, the “growth inhibition (GI)” value [3] was “inactive” and the “growth inhibition (GI)” value [4] was “inactive”. The “-logMIC” value [2] was 4.03.

Source: ChEMBL document CHEMBL4043204, “meso-Dihydroguaiaretic acid derivatives with antibacterial and antimycobacterial activity” (Bioorg Med Chem, 2017)
